Measurements published in ChEMBL document CHEMBL3526086, “Identification of the oxidative and conjugative enzymes involved in the biotransformation of brivanib” (Drug Metab Dispos, 2012).

Tests used:
[1] = test system: Liver microsome; assay: Drug level in human liver microsomes treated with 2 and 20 uM brivanib for 30 mins by LC/MS analysis in presence of 10 uM CYP2C9 inhibitor sulfaphenazole; assay type: ADME; details: 0.5 h
[2] = biological target: Cytochrome P450 2C9 (Homo sapiens, UniProt P11712); assay: Activity of human CYP2C9 assessed as compound formation treated with 2 and 20 uM brivanib for 20 mins by LC/MS analysis in presence of NADPH; assay type: ADME
Sequence of Cytochrome P450 2C9 (P11712 whole entry): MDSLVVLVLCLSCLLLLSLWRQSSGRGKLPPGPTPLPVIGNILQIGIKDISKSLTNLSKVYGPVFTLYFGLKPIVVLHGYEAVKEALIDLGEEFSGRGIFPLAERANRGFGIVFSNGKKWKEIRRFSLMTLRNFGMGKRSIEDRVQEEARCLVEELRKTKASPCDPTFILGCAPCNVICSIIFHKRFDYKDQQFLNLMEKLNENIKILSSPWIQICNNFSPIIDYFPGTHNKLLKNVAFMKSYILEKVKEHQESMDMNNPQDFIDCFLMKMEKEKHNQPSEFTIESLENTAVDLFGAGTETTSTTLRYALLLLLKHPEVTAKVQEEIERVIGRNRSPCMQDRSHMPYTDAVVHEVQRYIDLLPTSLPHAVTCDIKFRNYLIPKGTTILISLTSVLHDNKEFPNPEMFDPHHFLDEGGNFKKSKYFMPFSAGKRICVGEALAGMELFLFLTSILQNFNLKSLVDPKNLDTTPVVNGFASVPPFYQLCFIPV

[3] = biological target: Cytochrome P450 1B1 (Homo sapiens, UniProt Q16678); assay: Activity of human CYP1B1 assessed as compound formation treated with 2 and 20 uM brivanib for 20 mins by LC/MS analysis in presence of NADPH; assay type: ADME
Sequence of Cytochrome P450 1B1 (Q16678 whole entry): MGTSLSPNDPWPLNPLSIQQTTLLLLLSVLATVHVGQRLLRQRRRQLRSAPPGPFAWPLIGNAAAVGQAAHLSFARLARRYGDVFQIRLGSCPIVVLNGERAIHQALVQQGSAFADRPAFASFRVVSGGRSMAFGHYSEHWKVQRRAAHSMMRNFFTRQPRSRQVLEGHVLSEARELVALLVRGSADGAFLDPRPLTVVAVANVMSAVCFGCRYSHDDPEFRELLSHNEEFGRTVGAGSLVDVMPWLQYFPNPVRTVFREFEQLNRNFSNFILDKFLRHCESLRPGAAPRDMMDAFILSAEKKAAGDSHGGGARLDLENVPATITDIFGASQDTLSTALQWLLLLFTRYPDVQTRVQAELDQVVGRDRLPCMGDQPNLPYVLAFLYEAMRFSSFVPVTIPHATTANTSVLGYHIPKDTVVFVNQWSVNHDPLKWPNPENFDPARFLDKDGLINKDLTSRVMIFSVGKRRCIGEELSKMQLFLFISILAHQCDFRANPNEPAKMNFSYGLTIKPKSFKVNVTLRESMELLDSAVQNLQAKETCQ

[4] = biological target: Cytochrome P450 3A5 (Homo sapiens, UniProt P20815); assay: Activity of human CYP3A5 assessed as compound formation treated with 2 and 20 uM brivanib for 20 mins by LC/MS analysis in presence of NADPH; assay type: ADME
Sequence of Cytochrome P450 3A5 (P20815 whole entry): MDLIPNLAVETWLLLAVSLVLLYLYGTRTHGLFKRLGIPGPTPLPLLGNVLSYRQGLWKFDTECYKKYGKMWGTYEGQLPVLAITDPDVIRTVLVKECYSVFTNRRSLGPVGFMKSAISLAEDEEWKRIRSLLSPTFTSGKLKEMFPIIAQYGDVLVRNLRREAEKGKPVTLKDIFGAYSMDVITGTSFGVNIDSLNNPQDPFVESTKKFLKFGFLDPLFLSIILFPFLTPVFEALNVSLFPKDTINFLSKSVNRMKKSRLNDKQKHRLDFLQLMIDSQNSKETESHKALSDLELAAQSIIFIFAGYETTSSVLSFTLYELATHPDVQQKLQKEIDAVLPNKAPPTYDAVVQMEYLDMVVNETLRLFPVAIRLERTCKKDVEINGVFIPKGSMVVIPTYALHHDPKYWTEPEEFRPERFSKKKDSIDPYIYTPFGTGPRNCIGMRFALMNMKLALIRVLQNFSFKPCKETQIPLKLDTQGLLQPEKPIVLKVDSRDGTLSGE

[5] = biological target: T1, Cytochrome P450 2C8 (Homo sapiens, UniProt P10632); assay: Activity of human CYP2C8 assessed as compound formation treated with 2 and 20 uM brivanib for 20 mins by LC/MS analysis in presence of NADPH; assay type: ADME
T1 sequence (P10632 whole entry): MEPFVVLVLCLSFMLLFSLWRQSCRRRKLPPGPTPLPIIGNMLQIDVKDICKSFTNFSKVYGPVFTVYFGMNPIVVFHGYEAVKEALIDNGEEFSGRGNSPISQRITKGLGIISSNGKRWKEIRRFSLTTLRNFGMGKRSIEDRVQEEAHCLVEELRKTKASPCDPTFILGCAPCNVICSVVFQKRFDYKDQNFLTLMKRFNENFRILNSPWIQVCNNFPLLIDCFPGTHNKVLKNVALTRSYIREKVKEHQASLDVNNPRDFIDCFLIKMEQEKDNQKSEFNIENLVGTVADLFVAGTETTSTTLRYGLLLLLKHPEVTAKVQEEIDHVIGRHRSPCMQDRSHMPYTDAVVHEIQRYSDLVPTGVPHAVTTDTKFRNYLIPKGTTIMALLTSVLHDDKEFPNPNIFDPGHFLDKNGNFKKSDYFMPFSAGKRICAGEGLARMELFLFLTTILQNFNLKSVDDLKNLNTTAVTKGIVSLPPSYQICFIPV

[6] = test system: Liver microsome; assay: Drug level in human liver microsomes treated with 2 and 20 uM brivanib for 30 mins by LC/MS analysis in presence of 3 uM CYP2C8 inhibitor montekulast; assay type: ADME; details: 0.5 h
[7] = biological target: Cytochrome P450 2C19 (Homo sapiens, UniProt P33261); assay: Activity of human CYP2C19 assessed as compound formation treated with 2 and 20 uM brivanib for 20 mins by LC/MS analysis in presence of NADPH; assay type: ADME
Sequence of Cytochrome P450 2C19 (P33261 whole entry): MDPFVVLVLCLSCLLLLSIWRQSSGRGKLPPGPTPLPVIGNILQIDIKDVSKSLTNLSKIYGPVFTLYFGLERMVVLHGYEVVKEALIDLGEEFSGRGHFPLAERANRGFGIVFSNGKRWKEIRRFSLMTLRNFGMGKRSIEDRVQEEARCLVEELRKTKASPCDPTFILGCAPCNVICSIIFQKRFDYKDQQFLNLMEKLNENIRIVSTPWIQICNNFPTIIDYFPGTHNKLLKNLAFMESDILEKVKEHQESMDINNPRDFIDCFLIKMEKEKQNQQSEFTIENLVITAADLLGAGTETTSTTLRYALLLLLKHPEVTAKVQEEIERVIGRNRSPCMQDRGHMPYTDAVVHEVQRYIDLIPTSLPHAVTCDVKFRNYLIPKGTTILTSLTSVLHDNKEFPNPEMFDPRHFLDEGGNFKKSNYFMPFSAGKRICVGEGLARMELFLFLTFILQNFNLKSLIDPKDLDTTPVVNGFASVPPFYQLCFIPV

[8] = test system: Liver microsome; assay: Drug level in human liver microsomes treated with 2 and 20 uM brivanib for 30 mins by LC/MS analysis in presence of 50 uM CYP2B6 inhibitor orphenadrine; assay type: ADME; details: 0.5 h
[9] = biological target: Cytochrome P450 1A1 (Homo sapiens, UniProt P04798); assay: Activity of human CYP1A1 assessed as compound formation treated with 2 and 20 uM brivanib for 20 mins by LC/MS analysis in presence of NADPH; assay type: ADME
Sequence of Cytochrome P450 1A1 (P04798 whole entry): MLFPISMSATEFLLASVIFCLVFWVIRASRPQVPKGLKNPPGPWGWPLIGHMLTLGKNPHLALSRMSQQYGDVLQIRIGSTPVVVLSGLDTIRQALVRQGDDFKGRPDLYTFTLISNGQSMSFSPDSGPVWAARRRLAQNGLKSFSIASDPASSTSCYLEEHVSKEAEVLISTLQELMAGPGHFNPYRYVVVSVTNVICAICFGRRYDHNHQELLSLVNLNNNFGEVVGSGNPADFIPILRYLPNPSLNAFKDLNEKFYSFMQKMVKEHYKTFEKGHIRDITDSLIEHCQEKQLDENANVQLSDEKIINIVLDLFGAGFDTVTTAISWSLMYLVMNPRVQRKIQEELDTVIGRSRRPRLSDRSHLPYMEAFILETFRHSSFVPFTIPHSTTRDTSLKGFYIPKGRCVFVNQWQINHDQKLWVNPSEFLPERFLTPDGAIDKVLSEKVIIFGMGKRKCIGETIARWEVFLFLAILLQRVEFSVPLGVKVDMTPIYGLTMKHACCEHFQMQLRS

[10] = biological target: T2, Cytochrome P450 1A2 (Homo sapiens, UniProt P05177); assay: Activity of human CYP1A2 assessed as compound formation treated with 2 and 20 uM brivanib for 20 mins by LC/MS analysis in presence of NADPH; assay type: ADME
T2 sequence (P05177 whole entry): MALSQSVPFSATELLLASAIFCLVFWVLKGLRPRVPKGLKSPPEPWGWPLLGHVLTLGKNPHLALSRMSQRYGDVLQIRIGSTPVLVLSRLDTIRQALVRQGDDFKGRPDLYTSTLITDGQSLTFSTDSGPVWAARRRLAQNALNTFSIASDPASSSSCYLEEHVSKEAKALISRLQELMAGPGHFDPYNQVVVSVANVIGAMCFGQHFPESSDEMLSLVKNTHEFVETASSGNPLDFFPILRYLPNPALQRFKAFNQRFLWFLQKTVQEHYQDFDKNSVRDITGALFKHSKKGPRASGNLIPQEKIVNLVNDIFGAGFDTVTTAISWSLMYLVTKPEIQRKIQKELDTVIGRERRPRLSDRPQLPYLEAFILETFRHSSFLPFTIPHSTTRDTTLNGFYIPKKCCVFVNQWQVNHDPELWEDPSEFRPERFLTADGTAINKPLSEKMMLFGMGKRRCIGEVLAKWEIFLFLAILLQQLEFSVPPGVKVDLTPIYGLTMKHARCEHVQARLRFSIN

[11] = biological target: Cytochrome P450 2D6 (Homo sapiens, UniProt P10635); assay: Activity of human CYP2D6 assessed as compound formation treated with 2 and 20 uM brivanib for 20 mins by LC/MS analysis in presence of NADPH; assay type: ADME
[12] = test system: Liver microsome; assay: Drug level in human liver microsomes treated with 2 and 20 uM brivanib for 30 mins by LC/MS analysis in presence of 1 uM CYP2D6 inhibitor quinidine; assay type: ADME; details: 0.5 h
[13] = biological target: T3, Cytochrome P450 2B6 (Homo sapiens, UniProt P20813); assay: Activity of human CYP2B6 assessed as compound formation treated with 2 and 20 uM brivanib for 20 mins by LC/MS analysis in presence of NADPH; assay type: ADME
T3 sequence (P20813 whole entry): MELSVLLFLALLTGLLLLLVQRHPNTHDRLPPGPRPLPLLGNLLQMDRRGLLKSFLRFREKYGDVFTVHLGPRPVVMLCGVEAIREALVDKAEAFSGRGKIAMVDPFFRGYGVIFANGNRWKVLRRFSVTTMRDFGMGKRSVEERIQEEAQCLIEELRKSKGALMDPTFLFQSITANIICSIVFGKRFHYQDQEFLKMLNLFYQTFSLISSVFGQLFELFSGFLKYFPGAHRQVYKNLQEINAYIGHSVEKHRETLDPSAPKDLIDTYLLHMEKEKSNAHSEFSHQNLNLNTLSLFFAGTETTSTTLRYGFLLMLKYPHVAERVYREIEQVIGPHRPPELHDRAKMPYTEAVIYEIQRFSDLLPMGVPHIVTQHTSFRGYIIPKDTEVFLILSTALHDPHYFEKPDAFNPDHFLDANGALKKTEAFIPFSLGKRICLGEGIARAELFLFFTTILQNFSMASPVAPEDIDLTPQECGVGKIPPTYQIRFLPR

[14] = test system: Liver microsome; assay: Drug level in human liver microsomes assessed as compound formation treated with 2 uM [14C]brivanib alaninate for 60 mins by LC/MS analysis in presence of NADPH; assay type: ADME; details: 1 h
[15] = test system: Liver microsome; assay: Drug level in human liver microsomes treated with 2 and 20 uM brivanib for 30 mins by LC/MS analysis in presence of 50 uM CYP2E1 inhibitor diethyldithiocarbamate; assay type: ADME; details: 0.5 h
[16] = biological target: T4, Cytochrome P450 2A6 (Homo sapiens, UniProt P11509); assay: Activity of human CYP2A6 assessed as compound formation treated with 2 and 20 uM brivanib for 20 mins by LC/MS analysis in presence of NADPH; assay type: ADME
T4 sequence (P11509 whole entry): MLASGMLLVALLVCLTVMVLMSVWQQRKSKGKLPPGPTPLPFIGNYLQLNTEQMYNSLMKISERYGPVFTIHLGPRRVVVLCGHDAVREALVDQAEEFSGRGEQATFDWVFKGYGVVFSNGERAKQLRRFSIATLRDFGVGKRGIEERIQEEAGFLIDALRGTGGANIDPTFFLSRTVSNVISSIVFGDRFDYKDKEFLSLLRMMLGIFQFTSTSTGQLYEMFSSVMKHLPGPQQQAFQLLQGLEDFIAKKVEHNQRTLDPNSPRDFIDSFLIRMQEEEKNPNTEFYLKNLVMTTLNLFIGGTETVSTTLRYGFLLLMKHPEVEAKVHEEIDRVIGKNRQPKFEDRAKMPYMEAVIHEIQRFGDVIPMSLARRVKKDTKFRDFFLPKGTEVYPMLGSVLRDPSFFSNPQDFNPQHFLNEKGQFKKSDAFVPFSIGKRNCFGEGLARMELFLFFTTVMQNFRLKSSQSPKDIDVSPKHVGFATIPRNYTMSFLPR

[17] = test system: Liver microsome; assay: Drug level in human liver microsomes treated with 2 and 20 uM brivanib for 30 mins by LC/MS analysis in presence of 2 uM CYP2A6 inhibitor tranylcypromine; assay type: ADME; details: 0.5 h
[18] = biological target: Cytochrome P450 3A4 (Homo sapiens, UniProt P08684); assay: Activity of human CYP3A4 assessed as compound formation treated with 2 and 20 uM brivanib for 20 mins by LC/MS analysis in presence of NADPH; assay type: ADME
Sequence of Cytochrome P450 3A4 (P08684 whole entry): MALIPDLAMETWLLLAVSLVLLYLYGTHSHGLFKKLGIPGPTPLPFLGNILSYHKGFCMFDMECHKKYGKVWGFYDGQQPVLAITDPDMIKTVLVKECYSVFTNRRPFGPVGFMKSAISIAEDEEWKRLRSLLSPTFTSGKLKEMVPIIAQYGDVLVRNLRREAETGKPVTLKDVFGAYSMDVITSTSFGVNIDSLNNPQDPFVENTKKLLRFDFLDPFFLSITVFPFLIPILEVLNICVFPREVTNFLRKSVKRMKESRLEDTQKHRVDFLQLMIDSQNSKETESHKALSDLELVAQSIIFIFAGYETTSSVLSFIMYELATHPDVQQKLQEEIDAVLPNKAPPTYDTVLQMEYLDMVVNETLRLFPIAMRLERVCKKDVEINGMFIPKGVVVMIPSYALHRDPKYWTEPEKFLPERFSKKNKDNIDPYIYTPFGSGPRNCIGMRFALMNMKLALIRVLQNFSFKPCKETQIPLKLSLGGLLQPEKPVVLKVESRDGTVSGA

[19] = test system: Liver cytosol; assay: Drug level in human liver cytosol treated with 2 uM [14C]brivanib alaninate for 2 hrs by LC/MS analysis in presence of PAPS; assay type: ADME, tissue-based
[20] = biological target: Sulfotransferase 1A1 (Homo sapiens, UniProt P50225); assay: Activity of human SULT1A1 assessed as compound formation treated with 2 and 20 uM brivanib for 30 mins by LC/MS analysis in presence of PAPS; assay type: ADME; details: 0.5 h
Sequence of Sulfotransferase 1A1 (P50225 whole entry): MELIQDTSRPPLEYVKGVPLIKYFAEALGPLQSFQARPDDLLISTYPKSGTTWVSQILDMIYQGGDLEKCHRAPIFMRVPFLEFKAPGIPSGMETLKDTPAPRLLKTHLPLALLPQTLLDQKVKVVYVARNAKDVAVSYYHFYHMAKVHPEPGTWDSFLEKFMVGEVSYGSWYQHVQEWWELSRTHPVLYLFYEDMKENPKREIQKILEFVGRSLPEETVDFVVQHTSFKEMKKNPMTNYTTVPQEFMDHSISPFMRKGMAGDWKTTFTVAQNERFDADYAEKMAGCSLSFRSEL

[21] = biological target: Sulfotransferase 1E1 (Homo sapiens, UniProt P49888); assay: Activity of human SULT1E1 assessed as compound formation treated with 2 and 20 uM brivanib for 30 mins by LC/MS analysis in presence of PAPS; assay type: ADME; details: 0.5 h
Sequence of Sulfotransferase 1E1 (P49888 whole entry): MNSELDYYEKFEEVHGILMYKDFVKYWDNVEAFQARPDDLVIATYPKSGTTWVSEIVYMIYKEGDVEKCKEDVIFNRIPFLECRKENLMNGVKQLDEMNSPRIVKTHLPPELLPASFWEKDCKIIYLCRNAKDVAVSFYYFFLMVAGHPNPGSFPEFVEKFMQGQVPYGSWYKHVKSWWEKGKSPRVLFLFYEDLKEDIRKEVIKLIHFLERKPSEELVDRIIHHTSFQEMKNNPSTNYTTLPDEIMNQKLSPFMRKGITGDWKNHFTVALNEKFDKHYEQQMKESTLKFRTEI

[22] = biological target: Sulfotransferase 1B1 (Homo sapiens, UniProt O43704); assay: Activity of human SULT1B1 assessed as compound formation treated with 2 and 20 uM brivanib for 30 mins by LC/MS analysis in presence of PAPS; assay type: ADME; details: 0.5 h
Sequence of Sulfotransferase 1B1 (O43704 whole entry): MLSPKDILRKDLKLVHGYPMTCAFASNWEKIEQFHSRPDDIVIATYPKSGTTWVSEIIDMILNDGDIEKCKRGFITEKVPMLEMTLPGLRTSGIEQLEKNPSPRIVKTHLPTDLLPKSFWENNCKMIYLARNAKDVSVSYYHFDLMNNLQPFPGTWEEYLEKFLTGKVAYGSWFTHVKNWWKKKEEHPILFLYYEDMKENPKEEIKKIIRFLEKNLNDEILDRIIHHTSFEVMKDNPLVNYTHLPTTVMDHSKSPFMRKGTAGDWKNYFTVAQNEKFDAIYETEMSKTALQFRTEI

[23] = biological target: Sulfotransferase 2A1 (Homo sapiens, UniProt Q06520); assay: Activity of human SULT2A1 assessed as compound formation treated with 2 and 20 uM brivanib for 30 mins by LC/MS analysis in presence of PAPS; assay type: ADME; details: 0.5 h
Sequence of Sulfotransferase 2A1 (Q06520 whole entry): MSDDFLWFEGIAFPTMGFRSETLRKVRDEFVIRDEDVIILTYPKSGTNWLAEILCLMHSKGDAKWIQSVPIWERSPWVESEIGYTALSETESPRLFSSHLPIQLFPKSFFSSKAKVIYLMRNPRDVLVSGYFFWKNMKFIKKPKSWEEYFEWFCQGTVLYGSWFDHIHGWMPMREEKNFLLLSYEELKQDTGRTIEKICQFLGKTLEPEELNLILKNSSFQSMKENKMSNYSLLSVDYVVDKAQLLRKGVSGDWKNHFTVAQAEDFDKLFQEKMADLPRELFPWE

[24] = biological target: Sulfotransferase 1A3 (Homo sapiens, UniProt P0DMM9); assay: Activity of human SULT1A3 assessed as compound formation treated with 2 and 20 uM brivanib for 30 mins by LC/MS analysis in presence of PAPS; assay type: ADME; details: 0.5 h
Sequence of Sulfotransferase 1A3 (P0DMM9 whole entry): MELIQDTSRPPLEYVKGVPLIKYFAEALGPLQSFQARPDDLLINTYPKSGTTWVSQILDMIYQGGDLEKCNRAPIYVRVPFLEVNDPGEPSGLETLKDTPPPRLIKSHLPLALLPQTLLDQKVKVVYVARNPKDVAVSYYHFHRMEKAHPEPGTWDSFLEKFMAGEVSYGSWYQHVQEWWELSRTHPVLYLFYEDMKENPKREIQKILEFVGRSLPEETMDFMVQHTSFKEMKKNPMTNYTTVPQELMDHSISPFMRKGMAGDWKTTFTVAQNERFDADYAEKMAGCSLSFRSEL

[25] = test system: Liver microsome; assay: Drug metabolism in human liver microsomes assessed as (R)-1-(4-(4-fluoro-2-(hydroxymethyl)-1H-indol-5-yloxy)-5-methylpyrrolo[1,2-f][1,2,4]triazin-6-yloxy)propan-2-ol formation at 2 uM for 60 mins by LC/MS analysis; assay type: ADME
[26] = test system: Liver microsome; assay: Drug metabolism in human liver microsomes assessed as 1-(4-(4-fluoro-2-methyl-1H-indol-5-yloxy)-5-methylpyrrolo[1,2-f][1,2,4]triazin-6-yloxy)propan-2-one formation at 2 uM for 60 mins by LC/MS analysis in presence of NADPH; assay type: ADME
[27] = test system: Liver microsome; assay: Drug metabolism in human liver microsomes assessed as (R)-1-(4-(4-fluoro-2-(hydroxymethyl)-1H-indol-5-yloxy)-5-methylpyrrolo[1,2-f][1,2,4]triazin-6-yloxy)propan-2-ol formation at 2 uM for 60 mins by LC/MS analysis in presence of NADPH; assay type: ADME
[28] = test system: Liver microsome; assay: Drug metabolism in human liver microsomes assessed as (R)-4-fluoro-5-(6-(2-hydroxypropoxy)-5-methylpyrrolo[1,2-f][1,2,4]triazin-4-yloxy)-1H-indole-2-carboxylic acid formation at 2 uM for 60 mins by LC/MS analysis in presence of NADPH; assay type: ADME
[29] = test system: Liver microsome; assay: Drug metabolism in human liver microsomes assessed as brivanib formation at 2 uM for 60 mins by LC/MS analysis in presence of NADPH; assay type: ADME; details: 1 h
[30] = test system: Liver microsome; assay: Drug metabolism in human liver microsomes assessed as (R)-4-fluoro-5-(6-(2-hydroxypropoxy)-5-methylpyrrolo[1,2-f][1,2,4]triazin-4-yloxy)-1H-indole-2-carboxylic acid formation at 2 uM for 60 mins by LC/MS analysis; assay type: ADME
[31] = test system: Liver microsome; assay: Drug metabolism in human liver microsomes assessed as brivanib formation at 2 uM for 60 mins by LC/MS analysis; assay type: ADME; details: 1 h
[32] = test system: Liver microsome; assay: Drug metabolism in human liver microsomes assessed as 1-(4-(4-fluoro-2-methyl-1H-indol-5-yloxy)-5-methylpyrrolo[1,2-f][1,2,4]triazin-6-yloxy)propan-2-one formation at 2 uM for 60 mins by LC/MS analysis; assay type: ADME
[33] = test system: Liver cytosol; assay: Drug metabolism in human liver cytosol assessed as (R)-1-(4-(4-fluoro-2-methyl-1H-indol-5-yloxy)-5-methylpyrrolo[1,2-f][1,2,4]triazin-6-yloxy)propane-2-sulfonic acid formation at 2 uM for 2 hrs by LC/MS analysis in presence of PAPS; assay type: ADME

Measured: Drug metabolism

Cc1c(OC[C@@H](C)O)cn2ncnc(Oc3ccc4[nH]c(CO)cc4c3F)c12
not listed: [19] | [20] | [21] | [22] | [23] | [24] | [25] | [26] | [27] | [28] | [29] | [30] | [31] | [32] | [33]
metabolite_detected: all other assays above

Cc1cc2c(F)c(Oc3ncnn4cc(OC[C@@H](C)OS(=O)(=O)O)c(C)c34)ccc2[nH]1
metabolite_detected: [19] | [20] | [21] | [22] | [23] | [24]

Cc1cc2c(F)c(Oc3n[14cH]nn4cc(OC[C@@H](C)OC(=O)[C@H](C)N)c(C)c34)ccc2[nH]1
metabolite_detected: [26] | [27] | [28] | [29] | [31] | [33]
metabolite_not_detected: [25] | [30] | [32]
